The record followed here is patent publication US10045532B2, “Synergistic herbicidal mixtures for glyphosate-resistant volunteer corn control” (Valent U.S.A., Corporation, priority 2015, dated 2018).

Holding throughout (assay type): in vivo
Test [1] deals with glyphosate-resistant corn variety P1690. In words: Foliar spray of corn at V7 stage in outdoor replicated field plots, corn variety P1690 (Example 2, Table 2). Particulars: for percent control of glyphosate-resistant corn, 9 DAT / percent control of glyphosate-resistant corn, 16 DAT: variety P1690. The text has this:
(§1) Two varieties of corn were foliarly sprayed with mixtures of ethyl [3-[2-chloro-4-fluoro-5-(1-methyl-6-trifluoromethyl-2,4-dioxo-1,2,3,4-tetrahydropyrimidin-3-yl)phenoxy]-2-pyridyloxy]acetate and the potassium salt of glyphosate in outdoor replicated field plots. In addition, mixtures of ethyl [3-[2-chloro-4-fluoro-5-(1-methyl-6-trifluoromethyl-2,4-dioxo-1,2,3,4-tetrahydropyrimidin-3-yl)phenoxy]-2-pyridyloxy]acetate and glufosinate, and N,N′-dimethyl-4,4′-bipyridinium dichloride alone were foliarly sprayed. One corn variety was glyphosate-resistant and the other variety was both glyphosate and glufosinate resistant. The corn plants were at the V7 (plants with seven leaves with visible collars, about 30 to 40 inches tall) stage of development at the time of treatment. Roundup® PowerMax (available from Monsanto Company) was used as the source of the potassium salt of glyphosate. The adjuvant non-ionic surfactant was applied with ethyl [3-[2-chloro-4-fluoro-5-(1-methyl-6-trifluoromethyl-2,4-dioxo-1,2,3,4-tetrahydropyrimidin-3-yl)phenoxy]-2-pyridyloxy]acetate. The effects of the treatments were observed and recorded 9 and 16 days after the treatments (“9 DAT” and “16 DAT”, respectively).

In test [2] the test system is glyphosate-resistant and glufosinate-resistant corn variety 765-30. In words: Foliar spray of corn at V7 stage in outdoor replicated field plots, corn variety 765-30 (Example 2, Table 3). Particulars: for percent control of glyphosate-resistant and glufosinate-resistant corn, 9 DAT / percent control of glyphosate-resistant and glufosinate-resistant corn, 16 DAT: variety 765-30.
Description: as §1

Test [3] concerns volunteer glyphosate-resistant corn. In words: Foliar spray of glyphosate-resistant corn at V4 stage in outdoor replicated field plots (Example 1). The source says: Glyphosate-resistant corn was foliarly sprayed with mixtures of ethyl [3-[2-chloro-4-fluoro-5-(1-methyl-6-trifluoromethyl-2,4-dioxo-1,2,3,4-tetrahydropyrimidin-3-yl)phenoxy]-2-pyridyloxy]acetate and the potassium salt of glyphosate in outdoor replicated field plots. The corn was at the V4 (plants with four leaves with visible collars, about 6 to 8 inches tall) stage of development at the time of treatment. Roundup® PowerMax (available from Monsanto Company) was used as the source of the potassium salt of glyphosate. The adjuvant crop oil concentrate was applied with ethyl [3-[2-chloro-4-fluoro-5-(1-methyl-6-trifluoromethyl-2,4-dioxo-1,2,3,4-tetrahydropyrimidin-3-yl)phenoxy]-2-pyridyloxy]acetate. The effects of the treatments were observed and recorded 9 and 23 days after the treatments (“9 DAT” and “23 DAT”, respectively).

Where [4] appears, read: Treatment 8, 1260 g active/hectare.
Setting [5] is: Treatment 2, 1054 g active/hectare.
[6] abbreviates: Treatment 2, 1.25 g active/hectare.
[7] abbreviates: Treatment 3, 2.5 g active/hectare.
Where [8] appears, read: Treatment 4, 5 g active/hectare.
Where [9] appears, read: Treatment 5, 10 g active/hectare.
The mark [10] stands for this setting: Treatment 6, 20 g active/hectare.
[11] abbreviates: Treatment 7, 30 g active/hectare.
[12] abbreviates: Treatment 3, 5.6 g active/hectare.
Where [13] appears, read: Treatment 4, 10.1 g active/hectare.
Where [14] appears, read: Treatment 5, 20.2 g active/hectare.
The mark [15] stands for this setting: Treatment 6, 30.3 g active/hectare.
Setting [16] is: Treatment 7, 40.3 g active/hectare.
The mark [17] stands for this setting: Treatment 15, 500 g active/hectare.
The mark [18] stands for this setting: Treatment 18, 840 g active/hectare.

Molecules are shown by their SMILES. Structures can show the parent of a compound that is named as a salt.

Take `O=C(O)CNCP(=O)(O)O` [Glyphosate, potassium salt, reference compound]: in test [1] (setting [4]), the “percent control of glyphosate-resistant corn, 9 DAT” value is recorded as 0% and the “percent control of glyphosate-resistant corn, 16 DAT” value is given as 0%. Moreover, the “activity against glyphosate-resistant corn when applied alone” value (“activity” below) in test [1] (applied alone, Table 2, variety P1690) is “no activity”. Further, in test [2] (setting [4]), the “percent control of glyphosate-resistant and glufosinate-resistant corn, 9 DAT” value is 0%; the “percent control of glyphosate-resistant and glufosinate-resistant corn, 16 DAT” value is given as 0%. Further, the “activity” value in test [2] (applied alone, Table 3, variety 765-30) is given as “no activity”. Further, in test [3] (setting [5]), the “percent control of volunteer glyphosate-resistant corn, 9 DAT” value is 0% and the “percent control of volunteer glyphosate-resistant corn, 23 DAT” value worked out at 0%. In addition, the “activity” value in test [3] (applied alone, Table 1) is given as “no activity”.

Regarding `CCOC(=O)COc1ncccc1Oc1cc(-n2c(=O)cc(C(F)(F)F)n(C)c2=O)c(F)cc1Cl` [ethyl [3-[2-chloro-4-fluoro-5-(1-methyl-6-trifluoromethyl-2,4-dioxo-1,2,3,4-tetrahydropyrimidin-3-yl)phenoxy]-2-pyridyloxy]acetate], the “percent control of glyphosate-resistant corn, 9 DAT” value is on record as 16.15% in test [1] (setting [6]); 49.78% in test [1] (setting [7]); 44.48% in test [1] (setting [8]); 57.6% in test [1] (setting [9]); 81.8% in test [1] (setting [10]); 95% in test [1] (setting [11]). Further, the “percent control of glyphosate-resistant corn, 16 DAT” value is recorded as 25% in test [1] (setting [6]); 55% in test [1] (setting [7]); 40% in test [1] (setting [8]); 42.5% in test [1] (setting [9]); 100% in test [1] (setting [10]); 100% in test [1] (setting [11]). The “percent control of glyphosate-resistant and glufosinate-resistant corn, 9 DAT” value in test [2] (setting [6]) was 16.15%; in test [2] (setting [7]), 49.78%; in test [2] (setting [8]), 42.3%; in test [2] (setting [9]) it was 57.6%; in test [2] (setting [10]), 81.8%; in test [2] (setting [11]) it was 95%. In addition, the “percent control of glyphosate-resistant and glufosinate-resistant corn, 16 DAT” value in test [2] (setting [6]) is recorded as 25%; in test [2] (setting [7]) it was 52.5%; in test [2] (setting [8]), 40%; in test [2] (setting [9]), 42.5%; in test [2] (setting [10]), 91.3%; in test [2] (setting [11]), 100%. Moreover, the “percent control of volunteer glyphosate-resistant corn, 9 DAT” value in test [3] (setting [12]) was determined as 68.78%; in test [3] (setting [13]), 95.75%; in test [3] (setting [14]), 99.89%; in test [3] (setting [15]), 100%; in test [3] (setting [16]), 100%. For the same molecule, the “percent control of volunteer glyphosate-resistant corn, 23 DAT” value in test [3] (setting [12]) worked out at 6.7%; in test [3] (setting [13]), 87.74%; in test [3] (setting [14]) it was 99.89%; in test [3] (setting [15]) it was 100%; in test [3] (setting [16]), 100%.

With `CP(=O)(O)CCC(N)C(=O)O` (stereo not drawn) [Glufosinate, reference compound], in test [1] (setting [17]), the “percent control of glyphosate-resistant corn, 9 DAT” value came to 92.7% and the “percent control of glyphosate-resistant corn, 16 DAT” value is given as 100%. Also, in test [2] (setting [17]), the “percent control of glyphosate-resistant and glufosinate-resistant corn, 9 DAT” value is 3.8%; the “percent control of glyphosate-resistant and glufosinate-resistant corn, 16 DAT” value turned out to be 0%.

Consider `C[n+]1ccc(-c2cc[n+](C)cc2)cc1.[Cl-].[Cl-]` [N,N′-dimethyl-4,4′-bipyridinium dichloride, reference compound], for which, in test [1] (setting [18]), the “percent control of glyphosate-resistant corn, 9 DAT” value was found to be 84% and the “percent control of glyphosate-resistant corn, 16 DAT” value turned out to be 77.5%. In addition, in test [2] (setting [18]), the “percent control of glyphosate-resistant and glufosinate-resistant corn, 9 DAT” value came out at 81.3%; the “percent control of glyphosate-resistant and glufosinate-resistant corn, 16 DAT” value is listed as 92.5%.
